Measurements published in patent publication US8575208B2, “Inhibitors of serine proteases” (priority 2007, dated 2013).
pKi: −log10 of the molar value.

Molecular target: T1, HCV NS3 serine protease (UniProt Q9WMX2)
T1 construct: fused on or other part: Assay 1: C-terminal hexa-histidine tag
Test: HCV enzymatic assay (HCV NS3 peptide cleavage assays, apparent Ki)
Format: biochemical, hepatitis C virus
Settings: serine protease activity measured using the HCV Enzyme Assays; Assay No. 1 / Assay No. 2 not given
Experimental: This assay is a modification of that described by Landro, et al. (Landro J A, Raybuck S A, Luong Y C, O'Malley E T, Harbeson S L, Morgenstern K A, Rao G and Livingston D L. Biochemistry 1997, 36, 9340-9348), and uses a peptide substrate (NS5AB), based on the NS5A/NS5B cleavage site for genotype la HCV. The substrate stock solution (25 mM) was prepared in DMSO containing 0.2 M DTT and stored at −20° C. A synthetic peptide cofactor (KK4A) was used as a substitute for the central core region of NS4A. The reaction was performed in a 96-well microtiter plate format using 25 ηM to 50 ηM HCV NS3 protease domain in buffer containing 50 mM HEPES pH 7.8, 100 mM NaCl, 20% glycerol, 5 mM DTT and 25 μM KK4A. The final DMSO concentration was no greater than 2% v/v. Reactions were quenched by addition of trifluoroacetic acid (TFA) to yield a final concentration of 2.5%.
The SMSY product was separated from substrate and KK4A using a microbore separation method. The instrument used was a Agilent 1100 with a G1322A degasser, either a G1312A binary pump or a G1311A quaternary pump, a G1313A autosampler, a G1316A column thermostated chamber and a G1315A diode array detector. The column was a Phenomenex Jupiter, 5 μm C18, 300 Å, 150×2 mm, P/O 00F-4053-B0, with a flow-rate of 0.2 mL/min. The column thermostat was at 40° C. Mobile phases were HPLC grade H2O/0.1% TFA (solvent A) and HPLC grade CH3CN/0.1% TFA (solvent B). The SMSY product peak was quantitated using the data collected at […].
This assay follows the cleavage of a peptide substrate by full-length hepatitis C viral protein NS3•4A. One of three peptide substrates based on the NS5A/NS5B cleavage site for genotype 1a HCV is used to measure enzyme activity. All substrate stock solutions (25 mM) were prepared in DMSO containing 0.2M DTT and stored at −20° C. A synthetic peptide cofactor (NS4A Peptide) was used to supplement NS4A. Peptide sequences are shown below. The hydrolysis reaction was performed in a 96-well microtiter plate format using 100 ηM to 125 ηM HCV NS3•4A in buffer containing 50 mM HEPES pH 7.8, 100 mM NaCl, 20% glycerol, 5 mM DTT and 25 μM NS4A Peptide. The final DMSO concentration was no greater than 2% v/v. Reactions using NS5AB or NS5AB-EDANS as substrate were quenched by the addition of 10% trifluoroacetic acid (TFA) to yield a final TFA concentration of 2.5%. Reactions using FITC-NS5AB-1 as substrate were quenched by the addition of 0.4M formic acid to yield a final concentration of 0.08M acid.
Enzymatic activity was assessed by separation of substrate and products by reverse phase HPLC. The instrument used was a Agilent 1100 with a G1322A degasser, either a G1312A binary pump or a G1311A quaternary pump, a G1313A autosampler, a G1316A column thermostated chamber, a G1321A fluorescence detector and a G1315A diode array detector. The column thermostat was at 40° C. For substrate NS5AB the column was a Phenomenex Jupiter, 5 μm C18, 300 Å, 150×2 mm, P/O 00F-4053-B0, with a flow-rate of 0.2 mL/min using HPLC grade H2O/0.1% TFA (solvent A) and HPLC grade CH3CN/0.1% TFA (solvent B) as mobile phases. The C-terminal product peak (NH2-SMSY-COOH) was quantitated using the absorbance data collected at 210 ηm. For substrate NS5AB-EDANS the column was a Phenomenex Aqua, 5 μm C18, 125 Å, 50×4.6 mm, P/O 00B-4299-E0, with a flow-rate of 1.0 mL/min using HPLC grade H2O/0.1% TFA (solvent A) and HPLC grade CH3CN/0.1% TFA (solvent B) as mobile phases. The C-terminal product peak (NH2-SMSYT-Asp(EDANS)-KKK-COOH) was quantitated using the fluorescence data collected at 350 ηm excitation/490 ηm emission. For substrate FITC-NS5AB-1 the column was a Phenomenex Prodigy, 5 μm ODS(2), 125 Å, 50×4.6 mm, P/O 00B-3300-E0, with a flow-rate of 1.0 mL/min using 10 mM sodium phosphate pH 7.0 in HPLC grade H2O (solvent A) and 65% HPLC Grade CH3CN/35% 10 mM sodium phosphate pH 7.0 in HPLC grade H2O (solvent B) as mobile phases. […]

T1 sequence (Q9WMX2 1027-1657): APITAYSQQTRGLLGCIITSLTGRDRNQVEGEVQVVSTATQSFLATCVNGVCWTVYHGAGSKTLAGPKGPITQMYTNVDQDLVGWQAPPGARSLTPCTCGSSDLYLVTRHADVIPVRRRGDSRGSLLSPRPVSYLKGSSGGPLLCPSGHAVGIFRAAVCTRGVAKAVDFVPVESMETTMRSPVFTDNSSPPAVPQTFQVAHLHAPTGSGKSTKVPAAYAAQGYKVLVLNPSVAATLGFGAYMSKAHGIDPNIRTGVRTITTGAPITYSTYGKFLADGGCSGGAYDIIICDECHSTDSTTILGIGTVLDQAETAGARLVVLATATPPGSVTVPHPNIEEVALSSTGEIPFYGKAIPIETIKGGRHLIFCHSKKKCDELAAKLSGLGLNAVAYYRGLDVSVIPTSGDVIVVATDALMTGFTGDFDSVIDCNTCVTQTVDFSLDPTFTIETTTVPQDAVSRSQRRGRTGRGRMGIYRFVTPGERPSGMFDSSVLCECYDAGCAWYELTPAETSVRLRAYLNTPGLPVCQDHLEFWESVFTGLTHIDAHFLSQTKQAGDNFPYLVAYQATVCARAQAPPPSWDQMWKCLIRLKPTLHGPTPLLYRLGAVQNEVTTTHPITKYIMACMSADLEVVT

| SMILES | pKi |
| --- | --- |
| CCC[C@H](NC(=O)[C@@H]1C[C@@]2(CC(=O)N(c3ccccc3)C2)CN1C(=O)[C@@H](NC(=O)OC1CCCC1)C(C)(C)C)C(=O)C(=O)NC1CC1 [compound 1, Cyclopentyl-(S)-1-((3S,5R)-3-((S)-1-(cyclopropylamino)-1,2-dioxohexan-3-ylcarbamoyl)-8-oxo-7-phenyl-2,7-diazaspiro[4.4]nonan-2-yl)-3,3-dimethyl-1-oxobutan-2-ylcarbamate] | 6.15 to 6.39 |
| CCC[C@H](NC(=O)[C@@H]1C[C@]2(CC(=O)N(c3cccc(Cl)c3)C2)CN1C(=O)[C@@H](NC(=O)CC1CCCCC1)C(C)(C)C)C(=O)C(=O)NC1CC1 [compound 6] | 6.15 to 6.39 |
| CCC[C@H](NC(=O)[C@@H]1C[C@]2(CN(c3ccccc3)C(=O)O2)CN1C(=O)[C@@H](NC(=O)CC1CCCCC1)C(C)(C)C)C(=O)C(=O)NC1CC1 [compound 5, (5R,8S)-7-((S)-2-(2-cyclohexylacetamido)-3,3-dimethylbutanoyl)-N-((S)-1-(cyclopropylamino)-1,2-dioxohexan-3-yl)-2-oxo-3-phenyl-1-oxa-3,7-diazaspiro[4.4]nonane-8-carboxamide] | < 6.15 |
| CCC[C@H](NC(=O)[C@@H]1C[C@@]2(CN(c3cccc(Cl)c3)C(=O)O2)CN1C(=O)[C@@H](NC(=O)OC1CCCC1)C(C)(C)C)C(=O)C(=O)NC1CC1 [compound 7, Cyclopentyl (S)-1-((5S,8S)-3-(3-chlorophenyl)-8-((S)-1-(cyclopropylamino)-1,2-dioxohexan-3-ylcarbamoyl)-2-oxo-1-oxa-3,7-diazaspiro[4.4]nonan-7-yl)-3,3-dimethyl-1-oxobutan-2-ylcarbamate] | > 6.39 |
| CCC[C@H](NC(=O)[C@@H]1C[C@]2(CC(=O)N(c3ccccc3)C2)CN1C(=O)[C@@H](NC(=O)OC1CCCC1)C(C)(C)C)C(=O)C(=O)NC1CC1 [compound 4, cyclopentyl (S)-1-((3S,5S)-3-((S)-1-(cyclopropylamino)-1,2-dioxohexan-3-ylcarbamoyl)-8-oxo-7-phenyl-2,7-diazaspiro[4.4]nonan-2-yl)-3,3-dimethyl-1-oxobutan-2-ylcarbamate] | > 6.39 |
| CCC[C@H](NC(=O)[C@@H]1C[C@@]2(CC(=O)N(c3cccc(Cl)c3)C2)CN1C(=O)[C@@H](NC(=O)CC1CCCCC1)C(C)(C)C)C(=O)C(=O)NC1CC1 [compound 2] | < 6.15 |
